For the assay, the target named is Cyclin-Y/Cyclin-dependent kinase 16 (Homo sapiens, UniProt Q00536+Q8ND76). The assay is described as follows: Competitive irreversible inhibition of CDK16/cyclin Y (unknown origin) in presence of Km ATP.
Cyclin-Y/Cyclin-dependent kinase 16, sequence (Q00536 whole entry): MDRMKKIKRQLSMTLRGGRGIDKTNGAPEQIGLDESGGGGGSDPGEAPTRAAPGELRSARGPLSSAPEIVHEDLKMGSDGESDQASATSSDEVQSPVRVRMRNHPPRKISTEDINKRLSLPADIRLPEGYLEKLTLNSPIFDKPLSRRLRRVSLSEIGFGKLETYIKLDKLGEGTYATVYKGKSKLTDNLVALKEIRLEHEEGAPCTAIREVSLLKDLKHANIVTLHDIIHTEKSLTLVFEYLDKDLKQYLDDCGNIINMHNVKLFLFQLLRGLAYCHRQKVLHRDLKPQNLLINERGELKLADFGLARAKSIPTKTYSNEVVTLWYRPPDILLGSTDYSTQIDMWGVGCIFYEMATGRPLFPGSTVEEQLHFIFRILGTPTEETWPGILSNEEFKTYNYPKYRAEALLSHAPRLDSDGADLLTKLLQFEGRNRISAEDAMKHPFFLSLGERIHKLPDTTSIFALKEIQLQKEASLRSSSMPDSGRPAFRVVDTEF
Cyclin-Y/Cyclin-dependent kinase 16, sequence (Q8ND76 whole entry): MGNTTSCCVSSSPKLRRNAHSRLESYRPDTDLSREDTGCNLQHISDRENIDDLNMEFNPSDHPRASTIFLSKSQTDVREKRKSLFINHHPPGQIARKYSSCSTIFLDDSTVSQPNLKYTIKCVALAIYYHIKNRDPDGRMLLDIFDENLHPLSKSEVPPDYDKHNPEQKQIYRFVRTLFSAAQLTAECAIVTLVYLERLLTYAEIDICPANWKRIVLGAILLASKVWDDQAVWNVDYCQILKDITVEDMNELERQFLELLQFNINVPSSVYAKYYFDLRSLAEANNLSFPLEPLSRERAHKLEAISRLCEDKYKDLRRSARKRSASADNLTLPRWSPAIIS

Turning to `CN(C)C/C=C/C(=O)Nc1cccc(S(=O)(=O)N2CCC(NC(=O)c3n[nH]cc3NC(=O)c3c(Cl)cc(Cl)cc3Cl)CC2)c1`, the IC50 is 10 nM.
